Experimental data reported in patent US12410152B2, “Oxazole and thioazole-type cullin ring ubiquitin ligase compounds and uses thereof” (Proxygen GmbH, priority 2019, dated 2025).
Blank lines part the entries; values can stand above or below the compound they belong to.

Columns and labels:
cyclin K (CCNK) = target: T1, cyclin K (CCNK) (Homo sapiens, UniProt Q16531+Q9NYV4); experiment: CCNK destabilization/degradation (expression proteomics and Western blot); assay type: cell-based; conditions: for rescue of drug-induced CCNK degradation by pretreatment: 30 min pretreatment before IC020772.1 (2.5 μM, 5h), 1 μM carfilzomib, 1 μM MLN4924, 10 μM TAK-243, 1 μM THZ531
T1 construct: endogenous in cells; host or cells: KBM7 cells (WT and UBE2M/CUL4B/UBE2G1 mutant clones)
Protocol: (§1) The hypomorphic phenotype of the mutated UBE2M allele in KBM7 cells (KBM7 UBE2M^mut cells) was assessed. In this regard, CRISPR/Cas9-induced mutation of UBE2M inactivated CRL activity including CRL4^CRBN and CRL2^VHL. […] Additionally, CCNK destabilization by all three compounds was validated via time-resolved immunoblots wherein CCNK degradation was evident after two hours (FIG. 19c).
(§2) Subsequently, a total of 53 structurally related analogue compounds in dose-ranging viability assays in KBM7 wildtype- and UBE2M^mut cells was tested to develop a structure-activity relationship for the assayed compounds. This informed on sites amenable for derivatization of analogs (FIG. 20a), and also to the identification of structurally similar small molecules with no measurable activity that are thus suited negative controls. […] CRL activity-dependent degradation of CCNK could be rescued by pharmacologic NAE inhibition and by blocking the ubiquitin activating enzyme UBA1, particularly by pretreating the cells with 1 μM carfilzomib (Selleckchem, S2853), 1 μM MLN4924 (Selleckchem, S7109), 10 μM TAK-243 (MedChemExpress, HY-100487) or 1 μM THZ531 (MedChemExpress HY-103618) (FIG. 19d). Furthermore, treatment with the selective covalent CDK12/13 inhibitor THZ531, which binds to the ATP binding pocket of CDK12/13, rescued CCNK degradation (FIG. 19d) indicating the role of the active site of CDK12/13 for CRL activity-dependent CCNK degradation by the identified compounds (FIG. 19d).
(§3) PBS-washed cell pellets were lysed in 50 mM Tris pH 7.9, 8M Urea and 1% CHAPS and incubated with shaking at 4° C. for at least 30 min. 20 μg of supernatants were run and transferred for detection. Antibodies used: CUL1 (Santa Cruz Biotechnology, sc-1276), CUL2 (Sigma-Aldrich, SAB2501565-100), CUL3 (Cell Signaling Technology, 2759), CUL4A (Cell Signaling Technology, 2699S), CUL4B (Proteintech, 12916-1-AP), CUL5 (Santa Cruz Biotechnology, sc-373822), UBE2M (Santa Cruz Biotechnology, sc-390064), DDB1 (Cell Signaling Technology, 5428S), CCNK (Bethyl, A301-939A), CDK12 (Cell Signaling Technology, 11973S), CDK13 (Bethyl, A301-458A), RBM39 (1:500, Santa Cruz Biotechnology sc-376531), V5 (Cell Signaling Technology, 13202), Ubiquityl-Histone H2A (K119) (Cell Signaling, 8240-20). ACTIN (Sigma-Aldrich, A5441), VINCUL1N (Santa Cruz Biotechnology, sc-25336). Secondary antibodies anti-mouse/rabbit/goat (Jackson ImmunoResearch 115-035-003, 111-035-003 and 705-035-003).
(§4) Comparison of overall proteome-wide changes in KBM7 cells treated with IC020772.1 (2.5 μM), IC021313.2 (7 μM) or T6938051 (3.5 μM) for 5 h and 12h, using quantitative proteomics based on isobaric tagging.

UBE2M mutant KBM7 cells = experiment: cells; assay type: cell-based; conditions: for EC50: Homo sapiens, KBM-7, read-out: KBM7_UBE2M_mut
Protocol: (§5) KBM7 cells with the specified genetic backgrounds were grown in IMDM supplemented with 10% FBS and 1% penicillin/streptomycin (pen/strep). AsPC1, HCT116, NCI-H446 and 293T cells were grown in DMEM 10% FBS and 1% pen/strep. MV4; 11, Jurkat and Be (2) C cells were grown in RPMI 10% FBS 1% pen/strep. KBM7, AsPC1 and HCT116 cells expressing Cas9 were generated using the plasmid Lenti_Cas9_Blasti (Addgene #52962). The lentiviral plasmid lentiGuide-Puro (Addgene #52963) was used to express sgRNAs against the genes UBE2M (in KBM7-Cas9, AsPC1-Cas9 and HCT116-Cas9 cells), UBE2G1 (in KBM7-Cas9 cells) and […] (in KBM7-Cas9 cells). The lentiviral plasmid lentiGuide-Puro-IRES-mCherry (modified from Addgene #52963) was used to express sgRNAs against CUL4A (in KBM7-Cas9 cells). The lentiviral plasmid pLenti-PGK-Hygro-DEST-UBE2M was generated by Gateway cloning (empty destination vector Addgene #19066), and used to generate UBE2M^resc KBM7 cells. […]
(§6) Following this observation, it was rationalized that novel small molecule degraders can be identified in an unbiased manner, simply by searching for compounds that lose activity in the absence of UBE2M. 2000 small molecules, mostly of unknown function/target, were tested for their antiproliferative effects in human leukemia cells (KBM7). These cells were either transduced with a control sgRNA (KBM7WT), or with an sgRNA targeting UBE2M, leading to a hypomorph (deletion of six amino acids) with a functional impairment (UBE2Mmut).
(§7) Finally, a total of structurally similar analogs was tested to unravel structure-activity relationship of the identified molecules. To that end, their anti-cancer activity was assayed in WT cells, as well as KBM7 cells deficient in genes identified in the genome-wide CRISPR screens (UBE2M, CUL4B, UBE2G1). Moreover, the compounds were also tested in AsPC1 pancreatic cancer cells (WT or UBE2Mmut), MV4; 11 and Jurkat leukemia cells, Be (2) C neuroblastoma cells, and NCI-H446 lung cancer cells (Table 3 at the end of this document)
(§8) KBM7^WT, mutant KBM7 clones (UBE2M^mut, UBE2M^resc, UBE2G1^mut CUL4A^mut, CUL4B^mut), and 3-day doxycycline pretreated KBM7^iCas9_sgDDB1 cells were seeded at a cell density of 50,000 cells/mL in 96-well plates with DMSO or drug, in triplicates. Drugs used: IC020772.1/IC020772.1X, IC021313.2/IC021313.2X, T6938051/T6938051X or THZ531. Cells were treated for 3 days, after which cell viability was assessed according to manufacturer's protocol (CellTiter Glo, Promega G7570). Survival curves and EC50 values were calculated by best-fit analysis of the log 10 drug concentration to fold change of drug-treated cells over DMSO-treated cells. All survival assays included technical triplicates per sample, per experiment.

DCAF15 = target: T2, DCAF15 (Homo sapiens, UniProt Q66K64); experiment: DCAF15 stabilization, live-cell HiBit/LgBit bioluminescence screen; assay type: cell-based; conditions: 10 μM, 293T cells expressing HiBit-DCAF15
T2 construct: expressed in transfected cells; host or cells: 293T cells, DCAF15 knocked out, additionally transduced with LgBit
Description: Subsequently, in this context, the E3 ligase substrate receptor (SR) stabilization approach was employed in order to identify novel chemical matter that can bind and chemically re-program the substrate receptor DCAF15. To be able to screen a collection of around 8000 small-molecules, a cellular system was developed that enabled monitoring of DCAF15 levels in live cells in multi-well format. To that end, DCAF15 was first knocked out in 293T cells via CRISPR/Cas9 technology. Then, DCAF15 was stably expressed as a HiBit® fusion protein in these cells. After further transducing these cells with LgBit, this allowed live-cell tracing of DCAF15 levels in 384 well format by measuring bioluminescence (FIG. 13).
In brief, cells were seeded at a concentration of 250′000 cells/ml in DMEM+10% FCS+25 mM Hepes. The luciferase substrate Endurazine was added at concentrations recommended by the manufacturer. Small-molecules were added at a concentration of 10 μM, and their effect on DCAF15 levels was assayed by continuous bioluminescent imaging (measurements were taken every 120 minutes). In total, 8000 compounds were tested.
The known DCAF15 molecular glue indisulam was used as a positive control. In brief, indisulam is known to act as a DCAF15-dependent molecular glue that binds DCAF15 and induced proximity between DCAF15 and RBM39, leading to the degradation of the latter. […]

KBM7 UBE2G1mut cells = experiment: cells; assay type: cell-based; conditions: Homo sapiens, KBM-7, read-out: KBM7_UBE2G1_mut
Protocol: as §5, §7, §8

KBM7 CUL4Bmut cells = experiment: cells; assay type: cell-based; conditions: Homo sapiens, KBM-7, read-out: KBM7_CUL4B_mut
Protocol: as §5, §7, §8

KBM7 WT cells = experiment: cells; assay type: cell-based; conditions: for EC50: Homo sapiens, KBM-7, read-out: KBM7_WT; for effect on KBM7 cells in dose-ranging viability assays: WT KBM7, 3-day treatment
Protocol: as §5, §7, §8

[1] = system: T3, cyclin K (CCNK) (Homo sapiens); experiment: CCNK destabilization/degradation (expression proteomics and Western blot); assay type: cell-based; conditions: wild-type KBM7 cells
T3 construct: endogenous in cells; host or cells: KBM7 cells (WT and UBE2M/CUL4B/UBE2G1 mutant clones)
Protocol: as §1, §2, §3, §4

[2] = system: KBM7 WT and UBE2Mmut cells; experiment: Primary phenotypic screen, differential viability KBM7 WT vs UBE2M mutant; assay type: cell-based, human; conditions: 10 μM and 500 nM, 3 days
Protocol: as §6
KBM7^WT and UBE2M^mut cells were treated with a compound library (2000 cytotoxic diverse small-molecules, mostly of unknown function/target). Briefly, the screening was divided in three parts 1) primary screening, 2) follow up and 3) validation. During the primary screening, cells were treated with 10 μM and 500 nM of every compound. […] After 3 days of treatment, cell viability was measured (CellTiter Glo, Promega). The screen was perform in 384-well plates (Corning 3712) and the reagent/compound dispensing system used was: Echo 520 Liquid Handler, Multidrop™ Combi Reagent Dispenser. Control compounds were included in several wells, in all the plates. Method for validation of IC021313.2, IC020822.1, IC020772.1, T6938051 as described above in (i).

T3 sequence (O75909 whole entry partner): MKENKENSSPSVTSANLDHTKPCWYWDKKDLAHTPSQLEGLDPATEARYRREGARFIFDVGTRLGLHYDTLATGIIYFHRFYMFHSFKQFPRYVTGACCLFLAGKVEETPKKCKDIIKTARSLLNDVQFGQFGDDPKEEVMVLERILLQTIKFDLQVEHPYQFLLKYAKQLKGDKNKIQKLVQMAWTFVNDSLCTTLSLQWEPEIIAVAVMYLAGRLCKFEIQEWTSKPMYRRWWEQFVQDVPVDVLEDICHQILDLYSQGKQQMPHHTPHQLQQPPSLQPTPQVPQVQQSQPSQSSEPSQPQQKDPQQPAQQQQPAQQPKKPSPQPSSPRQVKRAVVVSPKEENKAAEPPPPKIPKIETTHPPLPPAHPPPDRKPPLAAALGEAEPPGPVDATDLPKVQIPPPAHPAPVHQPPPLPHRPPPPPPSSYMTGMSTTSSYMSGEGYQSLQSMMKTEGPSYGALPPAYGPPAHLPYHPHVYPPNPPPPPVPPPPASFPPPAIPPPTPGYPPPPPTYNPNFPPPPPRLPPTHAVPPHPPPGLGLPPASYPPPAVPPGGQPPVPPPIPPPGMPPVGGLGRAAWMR
T3 sequence (Q9NYV4 whole entry, further chain): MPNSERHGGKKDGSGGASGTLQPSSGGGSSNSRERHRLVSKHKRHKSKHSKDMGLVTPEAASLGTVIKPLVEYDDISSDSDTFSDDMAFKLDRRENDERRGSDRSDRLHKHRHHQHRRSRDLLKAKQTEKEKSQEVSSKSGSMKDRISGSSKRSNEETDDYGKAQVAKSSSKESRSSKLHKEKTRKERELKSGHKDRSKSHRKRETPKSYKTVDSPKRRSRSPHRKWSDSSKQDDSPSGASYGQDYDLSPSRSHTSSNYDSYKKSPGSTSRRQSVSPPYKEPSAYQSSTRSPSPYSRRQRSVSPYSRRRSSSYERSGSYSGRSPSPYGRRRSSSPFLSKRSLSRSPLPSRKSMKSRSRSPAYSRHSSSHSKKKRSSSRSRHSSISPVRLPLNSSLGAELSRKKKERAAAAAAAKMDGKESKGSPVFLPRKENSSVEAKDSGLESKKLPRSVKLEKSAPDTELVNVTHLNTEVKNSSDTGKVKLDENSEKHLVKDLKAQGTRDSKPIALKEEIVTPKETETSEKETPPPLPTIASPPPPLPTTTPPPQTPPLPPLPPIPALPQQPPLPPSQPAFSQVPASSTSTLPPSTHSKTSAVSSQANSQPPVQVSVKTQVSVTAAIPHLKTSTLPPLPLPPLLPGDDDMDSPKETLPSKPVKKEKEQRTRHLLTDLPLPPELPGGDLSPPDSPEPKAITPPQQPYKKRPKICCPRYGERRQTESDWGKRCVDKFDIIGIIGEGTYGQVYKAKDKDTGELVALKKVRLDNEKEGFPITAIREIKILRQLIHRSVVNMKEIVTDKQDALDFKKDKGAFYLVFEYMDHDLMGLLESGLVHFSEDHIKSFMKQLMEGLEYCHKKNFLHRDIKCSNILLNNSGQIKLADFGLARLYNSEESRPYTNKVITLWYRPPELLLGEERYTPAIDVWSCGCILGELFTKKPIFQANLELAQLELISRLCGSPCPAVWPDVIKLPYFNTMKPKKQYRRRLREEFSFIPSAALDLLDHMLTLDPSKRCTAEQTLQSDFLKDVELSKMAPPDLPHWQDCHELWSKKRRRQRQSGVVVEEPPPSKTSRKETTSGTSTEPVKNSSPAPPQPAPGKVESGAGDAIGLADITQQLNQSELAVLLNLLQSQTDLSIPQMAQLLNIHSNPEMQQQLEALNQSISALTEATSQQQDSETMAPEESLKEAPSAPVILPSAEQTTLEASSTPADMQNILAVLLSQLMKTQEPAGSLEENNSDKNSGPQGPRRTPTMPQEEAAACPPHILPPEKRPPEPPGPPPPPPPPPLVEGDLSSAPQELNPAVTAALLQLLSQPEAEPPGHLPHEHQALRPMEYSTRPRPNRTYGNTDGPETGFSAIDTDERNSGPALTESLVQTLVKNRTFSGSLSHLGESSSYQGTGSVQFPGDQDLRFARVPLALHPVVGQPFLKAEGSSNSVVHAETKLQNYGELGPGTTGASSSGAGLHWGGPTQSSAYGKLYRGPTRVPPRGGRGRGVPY
T3 sequence (Q16531 2-1140 limits assumed, further chain): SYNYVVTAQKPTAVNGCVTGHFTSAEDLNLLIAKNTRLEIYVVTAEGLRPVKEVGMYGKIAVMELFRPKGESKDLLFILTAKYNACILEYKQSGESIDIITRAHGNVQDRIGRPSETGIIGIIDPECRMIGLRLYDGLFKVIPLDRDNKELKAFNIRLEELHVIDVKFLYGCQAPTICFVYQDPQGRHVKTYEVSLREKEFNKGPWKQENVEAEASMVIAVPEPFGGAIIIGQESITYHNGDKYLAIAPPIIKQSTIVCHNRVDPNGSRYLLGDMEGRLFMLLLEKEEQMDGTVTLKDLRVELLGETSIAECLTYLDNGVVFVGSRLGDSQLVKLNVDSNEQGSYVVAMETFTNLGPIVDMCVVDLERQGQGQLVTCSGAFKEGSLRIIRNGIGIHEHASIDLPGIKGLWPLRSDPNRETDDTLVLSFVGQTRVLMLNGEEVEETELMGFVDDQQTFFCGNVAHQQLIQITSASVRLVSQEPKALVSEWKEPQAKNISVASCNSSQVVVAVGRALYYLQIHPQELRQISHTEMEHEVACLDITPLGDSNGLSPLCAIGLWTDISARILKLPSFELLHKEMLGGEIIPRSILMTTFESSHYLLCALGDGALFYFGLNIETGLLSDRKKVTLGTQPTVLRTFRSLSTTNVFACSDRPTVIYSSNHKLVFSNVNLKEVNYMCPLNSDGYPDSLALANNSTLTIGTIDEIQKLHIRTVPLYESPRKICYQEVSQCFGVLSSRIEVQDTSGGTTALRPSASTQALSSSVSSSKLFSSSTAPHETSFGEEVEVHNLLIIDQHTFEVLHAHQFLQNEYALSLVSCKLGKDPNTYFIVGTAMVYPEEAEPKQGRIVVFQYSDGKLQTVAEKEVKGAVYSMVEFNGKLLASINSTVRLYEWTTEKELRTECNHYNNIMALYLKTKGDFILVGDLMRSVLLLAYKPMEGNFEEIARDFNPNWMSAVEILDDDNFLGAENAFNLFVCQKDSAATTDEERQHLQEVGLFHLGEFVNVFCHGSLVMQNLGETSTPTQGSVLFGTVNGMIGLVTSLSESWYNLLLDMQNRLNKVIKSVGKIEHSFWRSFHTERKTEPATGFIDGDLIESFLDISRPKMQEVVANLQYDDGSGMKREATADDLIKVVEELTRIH
T3 sequence (Q13620 whole entry partner): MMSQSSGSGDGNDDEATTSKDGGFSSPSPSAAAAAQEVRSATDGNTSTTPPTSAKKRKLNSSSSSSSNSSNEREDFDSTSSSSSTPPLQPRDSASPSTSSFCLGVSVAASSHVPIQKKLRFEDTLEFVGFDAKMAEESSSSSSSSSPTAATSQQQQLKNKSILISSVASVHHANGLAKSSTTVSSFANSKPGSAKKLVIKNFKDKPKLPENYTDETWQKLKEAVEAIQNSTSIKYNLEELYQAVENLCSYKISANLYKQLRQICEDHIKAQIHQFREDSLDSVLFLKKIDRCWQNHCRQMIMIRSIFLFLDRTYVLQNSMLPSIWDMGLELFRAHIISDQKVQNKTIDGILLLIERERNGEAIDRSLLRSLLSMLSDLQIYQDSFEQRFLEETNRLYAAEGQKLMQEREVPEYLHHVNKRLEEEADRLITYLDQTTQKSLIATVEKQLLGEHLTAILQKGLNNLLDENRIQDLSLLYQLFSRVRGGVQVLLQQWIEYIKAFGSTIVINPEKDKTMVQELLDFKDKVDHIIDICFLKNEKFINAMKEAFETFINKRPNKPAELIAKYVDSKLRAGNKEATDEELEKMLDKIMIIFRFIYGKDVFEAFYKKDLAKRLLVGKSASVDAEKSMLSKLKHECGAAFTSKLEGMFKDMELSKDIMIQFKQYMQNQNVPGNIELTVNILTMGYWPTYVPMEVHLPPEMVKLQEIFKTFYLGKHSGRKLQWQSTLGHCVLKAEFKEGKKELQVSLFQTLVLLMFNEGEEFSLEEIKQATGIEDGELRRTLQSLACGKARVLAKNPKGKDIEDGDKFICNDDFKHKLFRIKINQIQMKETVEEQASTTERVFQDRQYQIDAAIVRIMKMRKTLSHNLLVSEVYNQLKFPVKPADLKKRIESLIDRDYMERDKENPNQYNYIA
T3 sequence (P62877 whole entry partner): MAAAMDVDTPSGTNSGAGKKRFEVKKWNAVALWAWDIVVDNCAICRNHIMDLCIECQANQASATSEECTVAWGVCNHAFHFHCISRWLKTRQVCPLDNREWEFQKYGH
T1 sequence (O75909 whole entry partner): as the sequence (O75909 whole entry partner) above
T1 sequence (Q9NYV4 whole entry): as the sequence (Q9NYV4 whole entry, further chain) above
T1 sequence (Q16531 2-1140 limits assumed): as the sequence (Q16531 2-1140 limits assumed, further chain) above
T1 sequence (Q13620 whole entry partner): as the sequence (Q13620 whole entry partner) above
T1 sequence (P62877 whole entry partner): as the sequence (P62877 whole entry partner) above
T2 sequence (Q66K64 whole entry): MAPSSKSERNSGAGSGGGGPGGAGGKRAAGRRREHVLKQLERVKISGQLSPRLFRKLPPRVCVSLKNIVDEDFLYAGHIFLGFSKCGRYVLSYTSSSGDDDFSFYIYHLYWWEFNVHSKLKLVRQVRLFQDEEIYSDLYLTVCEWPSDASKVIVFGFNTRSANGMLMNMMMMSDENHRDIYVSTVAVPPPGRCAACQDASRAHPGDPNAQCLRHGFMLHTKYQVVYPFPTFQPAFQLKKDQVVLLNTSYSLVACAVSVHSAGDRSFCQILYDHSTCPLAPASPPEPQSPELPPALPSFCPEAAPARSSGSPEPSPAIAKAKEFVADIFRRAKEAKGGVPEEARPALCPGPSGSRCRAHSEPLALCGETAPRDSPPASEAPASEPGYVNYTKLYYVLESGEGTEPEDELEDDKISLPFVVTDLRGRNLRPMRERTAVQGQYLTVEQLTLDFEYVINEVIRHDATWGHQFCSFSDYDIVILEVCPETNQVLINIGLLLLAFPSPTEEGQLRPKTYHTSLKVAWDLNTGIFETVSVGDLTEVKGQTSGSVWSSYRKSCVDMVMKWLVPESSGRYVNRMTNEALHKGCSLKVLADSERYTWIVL

rescue of drug-induced CCNK degradation by pretreatment (cyclin K (CCNK)): rescued
Compound: NS(=O)(=O)OC[C@@H]1C[C@@H](n2ccc3c(N[C@H]4CCc5ccccc54)ncnc32)C[C@@H]1O [MLN4924, reference compound]

rescue of drug-induced CCNK degradation by pretreatment (cyclin K (CCNK)): rescued
Compound: CC(C)C[C@H](NC(=O)[C@H](CCc1ccccc1)NC(=O)CN1CCOCC1)C(=O)N[C@@H](Cc1ccccc1)C(=O)N[C@@H](CC(C)C)C(=O)[C@@]1(C)CO1 [carfilzomib, reference compound]

Compound: Cc1ncsc1-c1ccc([C@H](C)NC(=O)[C@@H]2C[C@@H](O)CN2C(=O)[C@@H](NC(=O)COCCCOCCNC(=O)C[C@@H]2N=C(c3ccc(Cl)cc3)c3c(sc(C)c3C)-n3c(C)nnc32)C(C)(C)C)cc1 [ARV-771, reference compound]
anti-proliferative effect upon mutation of UBE2M (UBE2M mutant KBM7 cells; KBM7 UBE2M mutant vs WT): efficacy is significantly abrogated

DCAF15 stabilization (relative luciferase signal over time) (DCAF15): pronounced stabilization of DCAF15
Compound: NS(=O)(=O)c1ccc(S(=O)(=O)Nc2cccc3c(Cl)c[nH]c23)cc1 [indisulam, reference compound]

Compound: O=C(CSc1nc2ccccc2[nH]1)Nc1ccc(Br)cn1 [Compound Z201181756, 2-((1H-benzo[d]imidazol-2-yl)thio)-N-(5-bromopyridin-2-yl) acetamide]
EC50 (KBM7 UBE2G1mut cells): 6.17 µM
EC50 (KBM7 CUL4Bmut cells): 12.6 µM
EC50 (KBM7 WT cells): 1.41 µM
EC50 (UBE2M mutant KBM7 cells): 34.7 µM

Compound: CCCn1c2ccccc2c2nnc(SCC(=O)Nc3ccc(Cl)cn3)nc21 [IC020772.1X]
CCNK destabilization [1]: failed to induce pronounced CCNK destabilization
effect on KBM7 cells in dose-ranging viability assays (KBM7 WT cells): did not affect KBM7 cells

Compound: O=C(CSc1nc2ccccc2[nH]1)Nc1ccc(Br)cn1 [IC020822.1]
hit in differential viability screen [2]: stood out in terms of fold-change significance

rescue of drug-induced CCNK degradation by pretreatment (cyclin K (CCNK)): rescued
Compound: NS(=O)(=O)OC[C@H]1C[C@@H](Nc2ccnc3cc(-c4cccc(SC(F)(F)F)c4)nn23)[C@H](O)[C@@H]1O [TAK-243, reference compound]

Compound: O=C(CSc1nc2ccccc2[nH]1)Nc1ccc(Cl)cn1 [Compound Z54609541, 2-((1H-benzo[d]imidazol-2-yl)thio)-N-(5-chloropyridin-2-yl) acetamide]
EC50 (KBM7 UBE2G1mut cells): 7.6 µM
EC50 (KBM7 CUL4Bmut cells): 11.9 µM
EC50 (KBM7 WT cells): 2.41 µM
EC50 (UBE2M mutant KBM7 cells): 24.4 µM

Compound: O=C(CSc1nc2ccccc2[nH]1)Nc1ccccn1 [IC021313.2X]
CCNK destabilization [1]: failed to induce pronounced CCNK destabilization
effect on KBM7 cells in dose-ranging viability assays (KBM7 WT cells): did not affect KBM7 cells

Compound: Cc1ccc(NC(=O)C2CSCN2C(=O)c2ccc(C)o2)cc1 (stereo not shown) [Compound T6938051X]
CCNK destabilization [1]: failed to induce pronounced CCNK destabilization
effect on KBM7 cells in dose-ranging viability assays (KBM7 WT cells): did not affect KBM7 cells

rescue of drug-induced CCNK degradation by pretreatment (cyclin K (CCNK)): rescued
effect on CCNK upon inactivation of DDB1, UBE2G1 and UBE2M (cyclin K (CCNK); CRISPR-inactivated KBM7 cells): not affected
Compound: CN(C)C/C=C/C(=O)Nc1ccc(C(=O)N2CCC[C@@H](Nc3ncc(Cl)c(-c4c[nH]c5ccccc45)n3)C2)cc1 [THZ531, reference compound]
